Results on one substance are retold here after patent US20130109049A1, “Method of Establishing a Fungal Nail Infection” (NOVABIOTICS LIMITED, priority 2009, published 2013).

Assay [1] has as its system Trichophyton rubrum strain NCPF0118. Description: Ex vivo human nail fragment model, treatment of established infection (cfu recovered). It counts as cell-based.
The test system of assay [2] is T. interdigitale NCPF0335. Description: Ex vivo human nail fragment model, prevention of infection. It counts as cell-based, Trichophyton interdigitale. The conditions noted are these: Experiment 8. The source says: Six nail fragments were obtained. Three were assigned to each of two different infection prevention protocols, involving daily application of 2 different vehicle solutions, each containing a control and 3 different concentrations of Novexatin® (NP213). These vehicle solutions were: 50% (w/v) PEG 8000, and 50% (w/v) PEG 8000 plus 20% (w/v) urea. The concentrations of Novexatin® (NP213) studied were 0% (control), 1% (Novexatin® 1), 5% (Novexatin® 2) and 10% (Novexatin® 3) (w/v). The solutions were applied at a volume of 10 μl/cm^2, corrected for the surface area of the different nail fragments as described above. The applied solution was spread over the dorsal side of the nail, to mimic the intended clinical treatment and the ventral side of the nail rested on the agar surface. Each time the nails were contacted with the vehicle solutions, they were transferred to a new sterile Petri dish containing PBS agar to minimise any build-up of fungal growth on the agar. Nail fragments were contacted with the vehicle solutions daily for 7 days. Following such contact, each nail fragment was contacted with 10 μl of a spore suspension of T. interdigitale NCPF0335 which was prepared as described above. The spore suspension was applied to the ventral side of the nail (i.e. the side next to the skin in situ). […]

For assay [3], the system named is Candida. Description: Ex vivo human nail fragment model, treatment of Candida infection. The conditions noted are these: Experiments 6 and 7; 10% (w/v); 14 d or 28 d, daily. It counts as cell-based. The source says:
(§1) Trichophyton rubrum strain NCPF0118 was obtained from the National Collection of Pathogenic Fungi, Bristol, UK. Clinical isolates of T. rubrum DM2006 1661, T. rubrum DM2006 1358, T. mentagrophytes DM2006 1503, T. mentagrophytes DM2006 1498 were isolated from patients suffering a range of tinea infections and were purchased from Professor Michel Monod (Service de Dermatologie, Université de Lausanne, Switzerland). Clinical isolates of Candida samples were also obtained from patients suffering from Candidal infection.
The procedure was carried out as described for Example 1 above with modifications to the vehicle, and fungal strains used. Each nail was inoculated with 10 μl of a spore suspension of Candida. Following inoculation the nails were treated with 10% (w/v) Novexatin® (NP213) in a vehicle solution of 50% (w/v) PEG 8000 plus 20% (w/v) urea; 10% (w/v) NP339 in a vehicle solution of 50% (w/v) PEG 8000 plus 20% (w/v) urea; 10% (w/v) NP339 in a vehicle solution of water; a control solution of 50% (w/v) PEG 8000 plus 20% (w/v) urea; a control solution of water; a solution of 16 μg/ml Itraconazole® and 1.6% (w/v) DMSO in a vehicle solution of water and a control solution of 1.6% (w/v) DMSO. As for Experiment 1 above, nail fragments were treated daily for up to 28 days. […]
At the end of the treatment period, the nail fragments were placed in sterile 2 ml microcentrifuge tubes containing 450 μl of a suspension broth consisting of Sabouraud's Liquid Medium, pH 5.6, containing approximately 100 mg of sterile zirconia beads (0.5 mm diameter). […] Colonies were counted on dishes that contained between 20 and 200 colonies in total, and the total number of cfu present in each sample was calculated. […] The counts were corrected for the surface area of the nails studied to give cfu/cm^2, transformed to log10 and means and standard errors of the mean were calculated using GraphPad Prism 4 (GraphPad, San Diego, Calif.). […] When very low numbers of colonies were detected, as in Experiment 3, the calculated cfu values are shown in order to indicate trends.

Assay [4] concerns four clinical isolates of Trichophyton spp. As to the kind of experiment: In vitro MIC testing of clinical isolates. It counts as cell-based. The source says:
However, this difference in activity is not reflected in human nail tissue, which should be considered a more appropriate model for activity testing for antimicrobials of this type.

Assay [5] has as its system clinical isolates T. rubrum DM 2006 1661, T. rubrum DM 2006 1358, T. mentagrophytes DM 2006 1503, T. mentagrophytes DM 2006 1498. As to the kind of experiment: Ex vivo human nail fragment model, treatment, clinical isolates of Trichophyton spp. It counts as cell-based. As to conditions: Experiment 3.
Source text: as §1
The experiment was performed as described in Experiment 1 with modifications relating to the vehicle, concentrations and fungal strains used. […]
At the end of the treatment period, the nail fragments were placed in sterile 2 ml microcentrifuge tubes containing 450 μl of a suspension broth consisting of Sabouraud's Liquid Medium, pH 5.6, containing approximately 100 mg of sterile zirconia beads (0.5 mm diameter). […] Colonies were counted on dishes that contained between 20 and 200 colonies in total, and the total number of cfu present in each sample was calculated. […] The counts were corrected for the surface area of the nails studied to give cfu/cm^2, transformed to log10 and means and standard errors of the mean were calculated using GraphPad Prism 4 (GraphPad, San Diego, Calif.). […]

On to “7 to 200-mer (SEQ ID NO: 3) polyarginine [Novexatin® (NP213)]”, for which, in assay [1] (10% (w/v) in 50% (w/v) PEG 8000 vehicle, 28 d of treatment), the “killing of T. rubrum NCPF0118” value is over 99.9%. Also, the “fungal colonies isolated from nail fragments” value in assay [1] (Experiment 1, 10% (w/v), both presence and absence of urea, daily 28 days) is on record as “no colonies were isolated”. Moreover, in assay [1] (Experiment 2, 0%, 2.5%, 5%, 10% (w/v) in 50% PEG 8000 + 20% urea), the “effect of treatment on fungal survival (dose dependence)” value was “dose-dependent effect”. Moreover, the “reduction in fungal survival” value in assay [1] (Experiment 2, 2.5% and 5.0% (w/v), daily) is listed as “significant reductions in fungal survival”; in assay [1] (Experiment 2, 2.5%, 5.0% and 10.0% (w/v), alternate days), “the reduction in fungal survival was significant”. Moreover, the “reduction of fungal survival relative to Experiment 1” value in assay [1] (Experiment 2, 5% (w/v), difference not statistically significant) is “less effective in reducing fungal survival than observed in Experiment 1”. The fungal colonies recovered result in assay [1] (Experiment 2, 10% (w/v) applied daily, PEG 8000 + 20% urea) is “no fungal colonies were recovered”; in assay [1] (Experiment 2, 10% (w/v) applied on alternate days, PEG 8000 + 20% urea) it was “small numbers of colonies were recovered”; in assay [1] (Experiment 4, washed or unwashed nail fragments, 28 days), “No fungal colonies were recovered”. The “decrease in survival of the fungus compared to controls” value in assay [1] (Experiment 2, 10% (w/v) applied on alternate days) was about 3 log10. The “visual examination of nail fragments” value in assay [1] (Experiment 2, after 28 d treatment, versus vehicle alone (FIG. 7)) is on record as “no visual evidence of fungal infection”. Further, the “effect of simulated washing on antifungal efficacy” value in assay [1] (Experiment 4, nail surface wiped with sterile water before application) is recorded as “did not affect the antifungal efficacy”. In addition, the “fungal growth on pre-treated nail fragments” value in assay [2] (pre-treated daily for 7 days (1%, 5%, 10% w/v), after 24 hours from spore contact) is reported as “no fungal growth”; in assay [2] (up to 14 days after contact with spore suspension), “No fungal growth was observed”. Further, in assay [3], the “recoverable fungal growth after treatment” value was “no recoverable fungal growth”. The “susceptibility of clinical isolates compared to T. rubrum NCPF0118” value in assay [4] is on record as “less susceptible”. Also, in assay [5] (0%, 5%, 10% (w/v) in 50% PEG 8000 + 20% urea), the “effect on survival of clinical isolates (dose dependence)” value is given as “dose-dependent”. For the same substance, in assay [5] (four clinical isolates), the “effectiveness of treatment compared with T. rubrum NCPF0118” value is listed as “as effective as that observed when T. rubrum NCPF0118 was used”.
